Data published in PubChem BioAssay (NCI).
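Each compound was tested at five concentrations against cells in 96-well plates for 48 hours. GI50 = concentration required for 50% inhibition of growth. TGI denotes the concentration required for complete inhibition of growth.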

Key:
Experiment in all cases: growth of human tumour cells (NCI), 48 h
CCRF-CEM leukemia = system: CCRF-CEM leukemia
SF-268 CNS = system: SF-268 CNS
SK-MEL-28 melanoma = system: SK-MEL-28 melanoma
HOP-62 NSCLC = system: HOP-62 NSCLC
A549 NSCLC = system: A549 NSCLC
OVCAR-8 ovarian = system: OVCAR-8 ovarian
PC-3 prostate = system: PC-3 prostate
UACC-257 melanoma = system: UACC-257 melanoma
IGROV1 ovarian = system: IGROV1 ovarian
SK-MEL-5 melanoma = system: SK-MEL-5 melanoma
RXF 393 renal = system: RXF 393 renal
ACHN renal = system: ACHN renal
T-47D breast = system: T-47D breast
SR leukemia = system: SR leukemia
M14 melanoma = system: M14 melanoma
NCI/ADR-RES ovarian = system: NCI/ADR-RES ovarian
MALME-3M melanoma = system: MALME-3M melanoma
COLO 205 colon = system: COLO 205 colon
SN12C renal = system: SN12C renal
NCI-H226 lung = system: NCI-H226 lung
BT-549 breast = system: BT-549 breast
A498 renal = system: A498 renal
K-562 leukemia = system: K-562 leukemia
LOX IMVI melanoma = system: LOX IMVI melanoma
UO-31 renal = system: UO-31 renal
KM12 colon = system: KM12 colon
NCI-H460 lung = system: NCI-H460 lung
MOLT-4 leukemia = system: MOLT-4 leukemia
786-0 renal = system: 786-0 renal
HCT-15 colon = system: HCT-15 colon
MDA-MB-231 breast = system: MDA-MB-231 breast
DU-145 prostate = system: DU-145 prostate
MDA-MB-435 = system: MDA-MB-435
SK-MEL-2 melanoma = system: SK-MEL-2 melanoma
NCI-H23 lung = system: NCI-H23 lung
TK-10 renal = system: TK-10 renal
SK-OV-3 ovarian = system: SK-OV-3 ovarian
U251 CNS = system: U251 CNS
CAKI-1 renal = system: CAKI-1 renal
SNB-19 CNS = system: SNB-19 CNS
EKVX NSCLC = system: EKVX NSCLC
OVCAR-3 ovarian = system: OVCAR-3 ovarian
SW-620 colon = system: SW-620 colon
UACC-62 melanoma = system: UACC-62 melanoma
MCF7 breast = system: MCF7 breast
NCI-H522 lung = system: NCI-H522 lung
OVCAR-4 ovarian = system: OVCAR-4 ovarian
HOP-92 NSCLC = system: HOP-92 NSCLC
SF-539 CNS = system: SF-539 CNS
SNB-75 CNS = system: SNB-75 CNS
HCC-2998 colon = system: HCC-2998 colon
OVCAR-5 ovarian = system: OVCAR-5 ovarian
MDA-N = system: MDA-N
HL-60(TB) leukemia = system: HL-60(TB) leukemia
HT29 colon = system: HT29 colon
RPMI-8226 leukemia = system: RPMI-8226 leukemia
HS 578T breast = system: HS 578T breast
SF-295 CNS = system: SF-295 CNS
HCT-116 colon = system: HCT-116 colon

CC[C@@]1(OC(=O)CN)C(=O)OCc2c1cc1n(c2=O)Cc2cc3cc4c(cc3nc2-1)OCO4
GI50 (CCRF-CEM leukemia): < 0.01 µM
GI50 (SF-268 CNS): < 0.01 µM
GI50 (SK-MEL-28 melanoma): 0.209 µM
TGI (SK-MEL-28 melanoma): 10.8 µM
GI50 (HOP-62 NSCLC): < 0.01 µM
TGI (HOP-62 NSCLC): < 0.0495 µM
GI50 (A549 NSCLC): < 0.01 µM
TGI (A549 NSCLC): 0.309 µM
GI50 (OVCAR-8 ovarian): < 0.01 µM
TGI (OVCAR-8 ovarian): 0.13 µM
GI50 (PC-3 prostate): 0.0275 µM
TGI (PC-3 prostate): > 100 µM
GI50 (UACC-257 melanoma): < 0.0234 µM
TGI (UACC-257 melanoma): 0.417 µM
GI50 (IGROV1 ovarian): < 0.0145 µM
TGI (IGROV1 ovarian): 0.815 µM
GI50 (SK-MEL-5 melanoma): < 0.01 µM
TGI (SK-MEL-5 melanoma): 0.134 µM
GI50 (RXF 393 renal): < 0.01 µM
TGI (RXF 393 renal): 0.192 µM
GI50 (ACHN renal): < 0.01 µM
TGI (ACHN renal): < 0.01 µM
GI50 (T-47D breast): < 0.01 µM
TGI (T-47D breast): > 100 µM
GI50 (SR leukemia): < 0.01 µM
GI50 (M14 melanoma): < 0.01 µM
TGI (M14 melanoma): 0.0439 µM
GI50 (NCI/ADR-RES ovarian): < 0.01 µM
TGI (NCI/ADR-RES ovarian): 0.015 µM
GI50 (MALME-3M melanoma): < 0.01 µM
TGI (MALME-3M melanoma): 0.459 µM
GI50 (COLO 205 colon): 0.127 µM
TGI (COLO 205 colon): 1.53 µM
GI50 (SN12C renal): < 0.01 µM
TGI (SN12C renal): 0.563 µM
GI50 (NCI-H226 lung): < 0.01 µM
TGI (NCI-H226 lung): 0.121 µM
GI50 (BT-549 breast): 0.0157 µM
TGI (BT-549 breast): 0.552 µM
GI50 (A498 renal): < 0.01 µM
TGI (A498 renal): 0.126 µM
GI50 (K-562 leukemia): < 0.01 µM
GI50 (LOX IMVI melanoma): < 0.01 µM
TGI (LOX IMVI melanoma): 0.119 µM
GI50 (UO-31 renal): < 0.01 µM
TGI (UO-31 renal): 0.111 µM
GI50 (KM12 colon): 0.0346 µM
TGI (KM12 colon): 0.296 µM
GI50 (NCI-H460 lung): < 0.01 µM
TGI (NCI-H460 lung): 0.0238 µM
GI50 (MOLT-4 leukemia): < 0.01 µM
GI50 (786-0 renal): < 0.01 µM
TGI (786-0 renal): 0.0367 µM
GI50 (HCT-15 colon): 0.0291 µM
TGI (HCT-15 colon): > 100 µM
GI50 (MDA-MB-231 breast): 0.787 µM
TGI (MDA-MB-231 breast): > 23.7 µM
GI50 (DU-145 prostate): < 0.01 µM
TGI (DU-145 prostate): < 0.012 µM
GI50 (MDA-MB-435): < 0.0131 µM
TGI (MDA-MB-435): 0.838 µM
GI50 (SK-MEL-2 melanoma): 0.105 µM
TGI (SK-MEL-2 melanoma): 0.438 µM
GI50 (NCI-H23 lung): < 0.01 µM
TGI (NCI-H23 lung): < 0.0128 µM
GI50 (TK-10 renal): 0.108 µM
TGI (TK-10 renal): 9.21 µM
GI50 (SK-OV-3 ovarian): < 0.01 µM
TGI (SK-OV-3 ovarian): 0.0736 µM
GI50 (U251 CNS): < 0.01 µM
TGI (U251 CNS): 0.202 µM
GI50 (CAKI-1 renal): < 0.01 µM
GI50 (SNB-19 CNS): < 0.01 µM
TGI (SNB-19 CNS): 92.8 µM
GI50 (EKVX NSCLC): 0.0735 µM
TGI (EKVX NSCLC): > 100 µM
GI50 (OVCAR-3 ovarian): < 0.0239 µM
TGI (OVCAR-3 ovarian): 0.412 µM
GI50 (SW-620 colon): < 0.01 µM
GI50 (UACC-62 melanoma): < 0.01 µM
TGI (UACC-62 melanoma): 0.105 µM
GI50 (MCF7 breast): < 0.01 µM
TGI (MCF7 breast): > 100 µM
GI50 (NCI-H522 lung): < 0.01 µM
TGI (NCI-H522 lung): 0.246 µM
GI50 (OVCAR-4 ovarian): 0.0988 µM
TGI (OVCAR-4 ovarian): 0.826 µM
GI50 (HOP-92 NSCLC): < 0.01 µM
TGI (HOP-92 NSCLC): 0.404 µM
GI50 (SF-539 CNS): < 0.01 µM
TGI (SF-539 CNS): < 0.01 µM
GI50 (SNB-75 CNS): < 0.01 µM
GI50 (HCC-2998 colon): 0.0171 µM
TGI (HCC-2998 colon): 1.38 µM
GI50 (OVCAR-5 ovarian): < 0.0169 µM
TGI (OVCAR-5 ovarian): 0.232 µM
GI50 (MDA-N): < 0.01 µM
TGI (MDA-N): 2.27 µM
GI50 (HL-60(TB) leukemia): < 0.01 µM
GI50 (HT29 colon): < 0.01 µM
GI50 (RPMI-8226 leukemia): < 0.0104 µM
TGI (RPMI-8226 leukemia): 0.582 µM
GI50 (HS 578T breast): 0.399 µM
TGI (HS 578T breast): > 100 µM
GI50 (SF-295 CNS): < 0.01 µM
TGI (SF-295 CNS): < 0.01 µM

CCCCCCCC(=O)OC[n+]1ccc(-c2c(COC(=O)NC(C)C)c(COC(=O)NC(C)C)c3n2CCC3)cc1
TGI (CCRF-CEM leukemia): > 60.3 µM
TGI (SF-268 CNS): > 73.8 µM
TGI (SK-MEL-28 melanoma): > 100 µM
TGI (HOP-62 NSCLC): > 100 µM
TGI (A549 NSCLC): > 100 µM
TGI (OVCAR-8 ovarian): > 100 µM
TGI (HCT-116 colon): > 71.4 µM
TGI (PC-3 prostate): > 100 µM
TGI (UACC-257 melanoma): > 100 µM
TGI (IGROV1 ovarian): > 68.3 µM
TGI (SK-MEL-5 melanoma): > 100 µM
TGI (RXF 393 renal): 49.9 µM
TGI (ACHN renal): 68.9 µM
TGI (T-47D breast): > 100 µM
TGI (SR leukemia): > 56 µM
TGI (M14 melanoma): > 100 µM
TGI (NCI/ADR-RES ovarian): > 100 µM
TGI (MALME-3M melanoma): > 90.6 µM
TGI (COLO 205 colon): > 100 µM
TGI (SN12C renal): > 100 µM
TGI (NCI-H226 lung): > 100 µM
TGI (BT-549 breast): > 94.1 µM
TGI (A498 renal): 85.1 µM
TGI (K-562 leukemia): > 100 µM
TGI (LOX IMVI melanoma): 54 µM
TGI (UO-31 renal): > 100 µM
TGI (KM12 colon): > 100 µM
TGI (NCI-H460 lung): > 100 µM
TGI (MOLT-4 leukemia): > 59 µM
TGI (786-0 renal): > 79.8 µM
TGI (HCT-15 colon): > 100 µM
TGI (MDA-MB-231 breast): > 100 µM
TGI (DU-145 prostate): > 59.8 µM
TGI (MDA-MB-435): > 100 µM
TGI (SK-MEL-2 melanoma): 47.1 µM
TGI (NCI-H23 lung): > 100 µM
TGI (TK-10 renal): > 100 µM
TGI (SK-OV-3 ovarian): > 100 µM
TGI (U251 CNS): > 100 µM
TGI (CAKI-1 renal): 62.7 µM
TGI (SNB-19 CNS): > 100 µM
TGI (EKVX NSCLC): > 100 µM
TGI (OVCAR-3 ovarian): > 100 µM
TGI (SW-620 colon): 60.8 µM
TGI (UACC-62 melanoma): 33.5 µM
TGI (MCF7 breast): > 100 µM
TGI (NCI-H522 lung): > 59.6 µM
TGI (OVCAR-4 ovarian): > 100 µM
TGI (HOP-92 NSCLC): 83.8 µM
TGI (SF-539 CNS): > 66.3 µM
TGI (SNB-75 CNS): > 100 µM
TGI (HCC-2998 colon): > 100 µM
TGI (OVCAR-5 ovarian): > 100 µM
TGI (MDA-N): > 100 µM
TGI (HL-60(TB) leukemia): 52.4 µM
TGI (HT29 colon): > 100 µM
TGI (RPMI-8226 leukemia): 66.2 µM
TGI (HS 578T breast): > 100 µM
TGI (SF-295 CNS): > 100 µM
